In one assay the target is T1, HiBiT-BRM (Homo sapiens, UniProt P51531).
T1 construct: expressed in transfected cells
In words: HiBiT-BRM cell-based degradation assay (Nano-Glo HiBiT Lytic Detection). Conditions: HeLa cells expressing HiBiT-BRM, 24 h; for DC50: read-out: BRM HiBit Degradation IC50. Put shortly: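 HeLa cells stably expressing HiBiT-tagged BRM were treated for 24 h, then lysed with LgBiT-containing Nano-Glo reagent and luminescence read. % degradation scaled between DMSO (high control) and 2 μM reference BRM/BRG1 degrader (low control).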

Another assay has as its target T2, HiBit-BRG1 (Homo sapiens, UniProt P51532).
T2 construct: expressed in transfected cells
In words: HiBit-BRG1 cell-based degradation assay (Nano-Glo HiBiT Lytic Detection). The following applies: HeLa cells expressing HiBit-BRG1 and LgBit, 24 h; for DC50: read-out: BRG1 HiBit Degradation IC50; for Dmax: read-out: BRG1 HiBit Degradation Maximum (%). Put shortly: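 Seed 5000 HeLa HiBit-BRG1/LgBit cells per well; treat 24 h; equilibrate 15 min at room temperature; add Nano-Glo HiBiT lytic reagent, shake 10 min, read luminescence. Percent degradation is scaled between DMSO and 2 μM reference degrader wells.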
On the technique in general: The HiBiT peptide binds its large partner to form an active luciferase.

Where only a bound is given, the exact number is not on record here.

T2 sequence (P51532 whole entry): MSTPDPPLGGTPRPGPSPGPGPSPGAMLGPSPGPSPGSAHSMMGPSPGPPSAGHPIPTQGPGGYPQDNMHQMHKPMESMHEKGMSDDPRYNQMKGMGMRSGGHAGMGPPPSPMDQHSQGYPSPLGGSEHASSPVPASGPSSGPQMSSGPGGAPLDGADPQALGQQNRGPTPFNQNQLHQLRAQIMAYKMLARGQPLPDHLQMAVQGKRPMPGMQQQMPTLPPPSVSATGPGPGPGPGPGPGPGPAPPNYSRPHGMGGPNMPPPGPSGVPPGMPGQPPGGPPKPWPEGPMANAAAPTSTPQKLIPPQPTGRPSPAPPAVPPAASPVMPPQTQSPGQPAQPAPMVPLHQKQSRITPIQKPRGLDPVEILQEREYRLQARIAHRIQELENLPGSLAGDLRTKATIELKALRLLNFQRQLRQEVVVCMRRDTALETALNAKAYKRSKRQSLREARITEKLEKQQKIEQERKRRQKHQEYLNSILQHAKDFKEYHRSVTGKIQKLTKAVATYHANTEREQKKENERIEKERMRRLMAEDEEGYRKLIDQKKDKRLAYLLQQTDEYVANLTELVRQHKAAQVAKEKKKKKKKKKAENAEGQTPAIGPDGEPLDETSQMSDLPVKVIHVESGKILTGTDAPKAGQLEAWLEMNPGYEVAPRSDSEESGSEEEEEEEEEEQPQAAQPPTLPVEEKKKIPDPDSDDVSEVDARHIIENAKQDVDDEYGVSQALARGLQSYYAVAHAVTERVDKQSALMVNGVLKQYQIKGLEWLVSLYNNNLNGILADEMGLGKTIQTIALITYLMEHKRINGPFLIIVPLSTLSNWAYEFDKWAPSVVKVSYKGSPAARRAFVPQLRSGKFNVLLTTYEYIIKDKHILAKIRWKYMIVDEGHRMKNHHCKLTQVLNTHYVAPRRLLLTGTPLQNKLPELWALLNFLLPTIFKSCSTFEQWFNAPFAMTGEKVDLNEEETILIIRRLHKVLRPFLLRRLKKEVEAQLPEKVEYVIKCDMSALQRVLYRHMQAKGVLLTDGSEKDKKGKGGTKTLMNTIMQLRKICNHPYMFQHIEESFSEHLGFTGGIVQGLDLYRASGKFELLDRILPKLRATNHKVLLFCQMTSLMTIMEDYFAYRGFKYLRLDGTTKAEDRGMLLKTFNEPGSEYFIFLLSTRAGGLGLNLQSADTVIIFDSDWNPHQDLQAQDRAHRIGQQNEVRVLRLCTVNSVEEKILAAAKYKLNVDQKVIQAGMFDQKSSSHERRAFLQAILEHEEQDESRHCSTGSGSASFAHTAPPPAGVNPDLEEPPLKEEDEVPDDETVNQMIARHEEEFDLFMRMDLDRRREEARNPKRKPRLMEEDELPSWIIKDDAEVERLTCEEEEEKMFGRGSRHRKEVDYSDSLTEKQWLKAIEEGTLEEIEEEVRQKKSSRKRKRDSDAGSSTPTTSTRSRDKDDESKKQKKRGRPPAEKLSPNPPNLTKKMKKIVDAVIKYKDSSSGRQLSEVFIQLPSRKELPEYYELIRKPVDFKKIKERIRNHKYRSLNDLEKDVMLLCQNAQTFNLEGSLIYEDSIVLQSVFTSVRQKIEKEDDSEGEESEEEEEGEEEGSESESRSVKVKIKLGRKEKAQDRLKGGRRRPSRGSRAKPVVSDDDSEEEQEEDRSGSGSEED
T1 sequence (P51531 whole entry): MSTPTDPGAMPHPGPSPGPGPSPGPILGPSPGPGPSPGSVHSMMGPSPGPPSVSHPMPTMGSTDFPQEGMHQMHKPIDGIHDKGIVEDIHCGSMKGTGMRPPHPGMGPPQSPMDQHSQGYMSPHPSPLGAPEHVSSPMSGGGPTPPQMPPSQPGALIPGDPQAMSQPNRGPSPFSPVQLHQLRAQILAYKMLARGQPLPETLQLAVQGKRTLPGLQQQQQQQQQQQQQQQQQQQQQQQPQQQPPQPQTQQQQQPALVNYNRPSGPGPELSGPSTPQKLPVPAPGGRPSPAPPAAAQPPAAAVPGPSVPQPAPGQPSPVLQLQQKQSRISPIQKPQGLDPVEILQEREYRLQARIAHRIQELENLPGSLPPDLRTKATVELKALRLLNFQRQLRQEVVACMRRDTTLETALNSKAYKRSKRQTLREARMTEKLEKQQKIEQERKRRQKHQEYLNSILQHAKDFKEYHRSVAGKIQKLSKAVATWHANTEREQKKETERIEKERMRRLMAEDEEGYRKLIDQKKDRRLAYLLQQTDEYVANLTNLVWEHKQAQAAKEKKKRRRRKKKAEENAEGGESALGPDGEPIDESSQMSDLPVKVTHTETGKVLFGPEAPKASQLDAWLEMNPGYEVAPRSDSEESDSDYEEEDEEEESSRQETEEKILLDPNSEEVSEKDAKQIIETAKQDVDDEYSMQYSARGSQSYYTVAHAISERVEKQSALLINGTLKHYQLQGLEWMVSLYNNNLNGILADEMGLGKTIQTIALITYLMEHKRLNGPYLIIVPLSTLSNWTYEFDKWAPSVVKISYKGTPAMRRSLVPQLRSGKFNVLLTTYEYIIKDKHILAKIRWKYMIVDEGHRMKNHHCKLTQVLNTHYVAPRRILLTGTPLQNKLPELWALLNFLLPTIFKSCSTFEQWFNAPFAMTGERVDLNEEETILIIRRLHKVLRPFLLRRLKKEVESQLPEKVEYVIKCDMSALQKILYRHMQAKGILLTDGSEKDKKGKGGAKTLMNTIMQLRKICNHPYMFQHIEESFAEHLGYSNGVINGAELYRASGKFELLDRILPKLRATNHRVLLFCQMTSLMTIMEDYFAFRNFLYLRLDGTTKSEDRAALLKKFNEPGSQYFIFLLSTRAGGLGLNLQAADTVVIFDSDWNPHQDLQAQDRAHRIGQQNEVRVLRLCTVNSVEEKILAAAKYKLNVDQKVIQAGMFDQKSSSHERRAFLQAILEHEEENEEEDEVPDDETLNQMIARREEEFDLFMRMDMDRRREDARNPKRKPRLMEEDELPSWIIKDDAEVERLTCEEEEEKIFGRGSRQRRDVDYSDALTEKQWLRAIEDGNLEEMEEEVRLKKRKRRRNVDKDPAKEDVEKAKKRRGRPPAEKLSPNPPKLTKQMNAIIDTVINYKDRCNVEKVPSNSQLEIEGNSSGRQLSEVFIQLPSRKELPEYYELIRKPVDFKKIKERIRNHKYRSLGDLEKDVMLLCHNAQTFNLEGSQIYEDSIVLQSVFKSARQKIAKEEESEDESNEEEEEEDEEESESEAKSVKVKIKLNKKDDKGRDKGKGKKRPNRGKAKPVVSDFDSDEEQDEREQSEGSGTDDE

Consider `Nc1nnc(-c2ccccc2O)cc1OCCc1ccc(CNC(=O)COc2cccc3c2C(=O)N(C2CCC(=O)NC2=O)C3=O)cc1` (stereo not shown) [Compound 62, N-[[4-(2-[[3-amino-6-(2-hydroxyphenyl)pyridazin-4-yl]oxy]ethyl)phenyl]methyl]-2-[[2-(2,6-dioxopiperidin-3-yl)-1,3-dioxoisoindol-4-yl]oxy]acetamide], for which, on HiBiT-BRM, the “BRM HiBit Degradation Maximum (%)” value is given as “C (“C” indicates maximum degradation <50%)” and the DC50 is more than 1 µM. Also, at HiBit-BRG1, the DC50 is more than 0.1 µM and the Dmax is more than 50%.

Turning to `Cc1ncsc1-c1ccc(CNC(=O)[C@@H]2C[C@@H](O)CN2C(=O)[C@@H](NC(=O)CCCCCCCCCCCCC(=O)NCc2ccc(CCOc3cc(-c4ccccc4O)nnc3N)cc2)C(C)(C)C)cc1` [Compound 36], on HiBiT-BRM, the “BRM HiBit Degradation Maximum (%)” value is “B (“B” indicates maximum degradation ≥50%)” and the DC50 was more than 0.01 µM. In addition, at HiBit-BRG1, the DC50 was more than 1 µM and the Dmax was less than 50%.

Take `Cc1ncsc1-c1ccc([C@H](C)NC(=O)[C@@H]2C[C@@H](O)CN2C(=O)[C@@H](c2cc(OCCN3CCC(C(=O)NCc4ccc(CCOc5cc(-c6ccccc6O)nnc5N)cc4)CC3)no2)C(C)C)cc1` [Compound 176, N-(4-(2-((3-amino-6-(2-hydroxyphenyl)pyridazin-4-yl)oxy)ethyl)benzyl)-1-(2-((5-((R)-1-((2S,4R)-4-hydroxy-2-(((S)-1-(4-(4-methylthiazol-5-yl)phenyl)ethyl)carbamoyl)pyrrolidin-1-yl)-3-methyl-1-oxobutan-2-yl)isoxazol-3-yl)oxy)ethyl)piperidine-4-carboxamide]: at HiBiT-BRM, the “BRM HiBit Degradation Maximum (%)” value is listed as “A (“A” indicates maximum degradation ≥75%)” and the DC50 is more than 0.01 µM. Besides, at HiBit-BRG1, the DC50 is more than 0.1 µM and the Dmax is more than 75%.

For `Cc1ncsc1-c1ccc(CNC(=O)[C@@H]2C[C@@H](O)CN2C(=O)[C@@H](NC(=O)CCN2CCC(C(=O)NCc3ccc(CCOc4cc(-c5ccccc5O)nnc4N)cc3)CC2)C(C)(C)C)cc1` [Compound 180, N-(4-(2-((3-amino-6-(2-hydroxyphenyl)pyridazin-4-yl)oxy)ethyl)benzyl)-1-(3-(((S)-1-((2S,4R)-4-hydroxy-2-((4-(4-methylthiazol-5-yl)benzyl)carbamoyl)pyrrolidin-1-yl)-3,3-dimethyl-1-oxobutan-2-yl)amino)-3-oxopropyl)piperidine-4-carboxamide], at HiBiT-BRM, the “BRM HiBit Degradation Maximum (%)” value is reported as “B (“B” indicates maximum degradation ≥50%)” and the DC50 is more than 1 µM. Besides, at HiBit-BRG1, the DC50 is more than 1 µM and the Dmax was less than 50%.

As for `Nc1nnc(-c2ccccc2O)cc1OCCc1ccc(CN2CC(CCCOc3cccc4c3C(=O)N(C3CCC(=O)NC3=O)C4=O)C2)cc1` (stereo not shown) [Compound 127, 4-[3-(1-[[4-(2-[[3-amino-6-(2-hydroxyphenyl)pyridazin-4-yl]oxy]ethyl)phenyl]methyl]azetidin-3-yl)propoxy]-2-(2,6-dioxopiperidin-3-yl)isoindole-1,3-dione], at HiBiT-BRM, the “BRM HiBit Degradation Maximum (%)” value is on record as “C (“C” indicates maximum degradation <50%)” and the DC50 was more than 1 µM. In addition, at HiBit-BRG1, the DC50 is more than 1 µM and the Dmax was less than 50%.

In the case of `Cc1ncsc1-c1ccc(CNC(=O)[C@@H]2C[C@@H](O)CN2C(=O)[C@@H](NC(=O)CCN2CCC3(CC2)CCN(C(=O)c2ccc(CCOc4cc(-c5ccccc5O)nnc4N)cc2)CC3)C(C)(C)C)cc1` [Compound 201, (2S,4R)-1-((S)-2-(3-(9-(4-(2-((3-amino-6-(2-hydroxyphenyl)pyridazin-4-yl)oxy)ethyl)benzoyl)-3,9-diazaspiro[5.5]undecan-3-yl)propanamido)-3,3-dimethylbutanoyl)-4-hydroxy-N-(4-(4-methylthiazol-5-yl)benzyl)pyrrolidine-2-carboxamide], at HiBiT-BRM, the “BRM HiBit Degradation Maximum (%)” value is “B (“B” indicates maximum degradation ≥50%)” and the DC50 is more than 1 µM. For the same compound, at HiBit-BRG1, the DC50 is more than 1 µM and the Dmax was less than 50%.

As to `Cc1ncsc1-c1ccc(CNC(=O)[C@@H]2C[C@@H](O)CN2C(=O)[C@@H](NC(=O)CCN2CCC(OC3CCN(CCC(=O)NCc4ccc(CCOc5cc(-c6ccccc6O)nnc5N)cc4)CC3)CC2)C(C)(C)C)cc1` [Compound 236, (2S,4R)-1-((S)-2-(3-(4-((1-(3-((4-(2-((3-amino-6-(2-hydroxyphenyl)pyridazin-4-yl)oxy)ethyl)benzyl)amino)-3-oxopropyl)piperidin-4-yl)oxy)piperidin-1-yl)propanamido)-3,3-dimethylbutanoyl)-4-hydroxy-N-(4-(4-methylthiazol-5-yl)benzyl)pyrrolidine-2-carboxamide], on HiBiT-BRM, the “BRM HiBit Degradation Maximum (%)” value is on record as “B (“B” indicates maximum degradation ≥50%)” and the DC50 is more than 1 µM. Moreover, on HiBit-BRG1, the DC50 is more than 1 µM and the Dmax is less than 50%.

On to `Cc1ncsc1-c1ccc(CNC(=O)[C@@H]2C[C@@H](O)CN2C(=O)[C@@H](NC(=O)COCCOCCOCCOCCOCC(=O)NCc2ccc(CCOc3cc(-c4ccccc4O)nnc3N)cc2)C(C)(C)C)cc1` [Compound 168, N1-(4-(2-((3-amino-6-(2-hydroxyphenyl)pyridazin-4-yl)oxy)ethyl)benzyl)-N17-((S)-1-((2S,4R)-4-hydroxy-2-((4-(4-methylthiazol-5-yl)benzyl)carbamoyl)pyrrolidin-1-yl)-3,3-dimethyl-1-oxobutan-2-yl)-3,6,9,12,15-pentaoxaheptadecanedia], for which, on HiBiT-BRM, the “BRM HiBit Degradation Maximum (%)” value is recorded as “C (“C” indicates maximum degradation <50%)” and the DC50 was more than 1 µM. Moreover, at HiBit-BRG1, the DC50 was more than 1 µM and the Dmax is less than 50%.

As for `Nc1nnc(-c2ccccc2O)cc1OCCc1ccc(C(=O)NCCCCCCCCNc2ccc3c(c2)C(=O)N(C2CCC(=O)NC2=O)C3=O)cc1` (stereo not shown) [Compound 64, 4-(2-[[3-amino-6-(2-hydroxyphenyl)pyridazin-4-yl]oxy]ethyl)-N-(8-[[2-(2,6-dioxopiperidin-3-yl)-1,3-dioxoisoindol-5-yl]amino]octyl)benzamide], on HiBiT-BRM, the “BRM HiBit Degradation Maximum (%)” value was “C (“C” indicates maximum degradation <50%)” and the DC50 is more than 1 µM. At HiBit-BRG1, the DC50 was more than 1 µM and the Dmax was less than 50%.

Consider `Cc1ncsc1-c1ccc(CNC(=O)[C@@H]2C[C@@H](O)CN2C(=O)[C@@H](NC(=O)CCN2CC3(C2)CN(CC(=O)NCc2ccc(CCOc4cc(-c5ccccc5O)nnc4N)cc2)C3)C(C)(C)C)cc1` [Compound 196, (2S,4R)-1-((S)-2-(3-(6-(2-((4-(2-((3-amino-6-(2-hydroxyphenyl)pyridazin-4-yl)oxy)ethyl)benzyl)amino)-2-oxoethyl)-2,6-diazaspiro[3.3]heptan-2-yl)propanamido)-3,3-dimethylbutanoyl)-4-hydroxy-N-(4-(4-methylthiazol-5-yl)benzyl)pyrrolidine-2-carboxamide], for which, at HiBiT-BRM, the “BRM HiBit Degradation Maximum (%)” value is recorded as “C (“C” indicates maximum degradation <50%)” and the DC50 was more than 1 µM. Moreover, on HiBit-BRG1, the DC50 is more than 1 µM and the Dmax is less than 50%.

`Cc1ncsc1-c1ccc(CNC(=O)[C@@H]2C[C@@H](O)CN2C(=O)[C@@H](NC(=O)CCN2CCC(OC3CCN(C(=O)c4ccc(CCOc5cc(-c6ccccc6O)nnc5N)cc4)CC3)CC2)C(C)(C)C)cc1` [Compound 202, (2S,4R)-1-((S)-2-(3-(4-((1-(4-(2-((3-amino-6-(2-hydroxyphenyl)pyridazin-4-yl)oxy)ethyl)benzoyl)piperidin-4-yl)oxy)piperidin-1-yl)propanamido)-3,3-dimethylbutanoyl)-4-hydroxy-N-(4-(4-methylthiazol-5-yl)benzyl)pyrrolidine-2-carboxamide]: on HiBiT-BRM, the “BRM HiBit Degradation Maximum (%)” value is reported as “B (“B” indicates maximum degradation ≥50%)” and the DC50 was more than 1 µM. On HiBit-BRG1, the DC50 is more than 1 µM and the Dmax is less than 50%.

Consider `Nc1nnc(-c2ccccc2O)cc1OCCc1ccc(CNCCN2CCN(c3ccc4c(c3)C(=O)N(C3CCC(=O)NC3=O)C4=O)CC2)cc1` (stereo not shown) [Compound 3, 5-(4-(2-((4-(2-((3-amino-6-(2-hydroxyphenyl)pyridazin-4-yl)oxy)ethyl)benzyl)amino)ethyl)piperazin-1-yl)-2-(2,6-dioxopiperidin-3-yl)isoindoline-1,3-dione], for which, on HiBiT-BRM, the “BRM HiBit Degradation Maximum (%)” value is reported as “C (“C” indicates maximum degradation <50%)” and the DC50 is more than 1 µM. On HiBit-BRG1, the DC50 is more than 1 µM and the Dmax was less than 50%.

In the case of `Cc1ncsc1-c1ccc(CNC(=O)[C@H]2C[C@H](O)CN2C(=O)[C@H](NC(=O)CCCCCNC(=O)c2ccc(CCOc3cc(-c4ccccc4O)nnc3N)cc2)C(C)(C)C)cc1` (stereo in doubt) [Compound 53, (2R,4S)-1-((R)-2-(6-(4-(2-((3-amino-6-(2-hydroxyphenyl)pyridazin-4-yl)oxy)ethyl)benzamido)hexanamido)-3,3-dimethylbutanoyl)-4-hydroxy-N-(4-(4-methylthiazol-5-yl)benzyl)pyrrolidine-2-carboxamide], on HiBiT-BRM, the “BRM HiBit Degradation Maximum (%)” value is “C (“C” indicates maximum degradation <50%)” and the DC50 was more than 1 µM. Besides, on HiBit-BRG1, the DC50 was more than 1 µM and the Dmax is less than 50%.

Values taken from patent US20230150974A1 (Foghorn Therapeutics Inc., priority 2020, published 2023).
